Counter-ions that a name gives are not always drawn. Like-named read-outs stand apart in the source and are kept apart here.
Experiments:
[1] = pharmaceutical activity of crystal forms; format: in vivo
[2] = tested on: writhing (pain); experiment: writhing test; format: in vivo; details: mice or rats
Excerpt: Experiments have shown that the compound according to the invention is active in the "writhing test" on mice or rats (method cf. Siegmund et al., Proc. Soc. Exp. Biol. 95, (1957), 729-731).

[3] = tested on: carrageenan-induced hyperalgesia; experiment: carrageenan-induced hyperalgesia model; format: in vivo; details: rats
[4] = tested on: physical dependence; experiment: physical dependence / dependence potential; format: in vivo
[5] = anti-inflammatory, diuretic, anticonvulsive and neuroprotective actions (familiar methods); details: in vivo
[6] = tested on: kappa-receptors; experiment: binding to kappa-receptors
[7] = blood-brain barrier passage; details: due to its structure
[8] = side effects; details: in vivo
[9] = tested on: intestinal motility; experiment: inflammatory bowel disorders / intestinal motility; format: in vivo; details: inflammatory bowel disorder
[10] = tested on: burns; experiment: treatment of burns and sunburn; format: in vivo; details: heat, flames, severe sunburn
[11] = tested on: allergic skin reactions; experiment: treatment of allergies to the sun; format: in vivo
[12] = tested on: neurodermatitis; experiment: treatment of neurodermatitis; format: in vivo
[13] = tested on: rheumatic disorders and back conditions; experiment: treatment of rheumatic disorders and back conditions; format: in vivo
[14] = tested on: inflammation-related hyperalgesias; experiment: analgesic action / inflammation-related hyperalgesias; details: in vivo
[15] = pKa; format: physicochemical
[16] = Solubility in water; format: physicochemical; details: at 20° C.
[17] = Solubility in methanol; format: physicochemical; details: organic solvent or mixture, at 20° C.
[18] = format: physicochemical
Method: In the case of these two types, not only their melting behavior differs but also their storage stabilities. […] During DSC determination (DSC=Differential Scanning Calorimetry)of the crystal form of type II, on slow heating above the melting point at approximately 200° C. the crystal type IV which melts at approximately 220-226° C. crystallizes out. Crystal type IV is also detected when a melt of type II (just above 200° C.) is suddenly cooled and stored at room temperature for a period of 12 to 16 hours. […] In contrast to this, however, by seeding with seed crystals of type […] the crystal form IV is especially obtained. Additionally, the solubility of the crystal type IV in aqueous solution is lower than that of type II.

[19] = Solubility of crystal types in aqueous solution; format: physicochemical
[20] = listed as N-methyl-N-[(1S)-1-phenyl-2-((3S)-3-hydroxypyrrolidin-1-yl)ethyl]-2,2-diphenylac

In the case of `CN(C(=O)C(c1ccccc1)c1ccccc1)[C@H](CN1CC[C@H](O)C1)c1ccccc1.Cl` [N-methyl-N-[(1S)-1-phenyl-2-((3S)-3-hydroxypyrrolidin-1-yl)ethyl]-2,2-diphenylacetamide hydrochloride], the “effectiveness as medicament in all indication areas” value ([1]; all types of preparation forms) is reported as “particularly effective”.
With `CN(C(=O)C(c1ccccc1)c1ccccc1)[C@H](CN1CC[C@H](O)C1)c1ccccc1` [compound according to the invention, N-methyl-N-[(1S)-1-phenyl-2-((3S)-3-hydroxypyrrolidin-1-yl)ethyl]-2,2-diphenylacetamide] the “activity in the writhing test” value [2] was “active”, the “action in carrageenan-induced hyperalgesia model” value [3] was “Particularly strong actions” and the dependence potential ([4]; attributed to no blood-brain barrier passage) was “no dependence potential”. The “tendency to physical dependence” value ([4]; in vivo) was “no or only a small tendency to physical dependence”, the anti-inflammatory action [5] was “pronounced” and the anticonvulsive action [5] was “pronounced”. For the same molecule, the diuretic action [5] was “pronounced”, the neuroprotective action [5] was “pronounced” and the affinity to kappa-receptors [6] was “high affinity”. For the same molecule, the blood-brain barrier passage [7] was “cannot pass through the blood-brain barrier”, the side effects [8] was “no side effects have been found which would restrict the use” and the side effects [8, 20] was “without causing noticeable side effects”. The intestinal motility normalization [9] was “suitable for normalizing disorders of the intestinal motility”, the intestinal motility normalization [9, 20] was “normalizes the motility of the intestine or sets it in motion again” and the treatment of burns [10] was “particularly suitable in the treatment of burns”. The allergic skin reactions [11] was “allergic skin reactions rapidly fade”, the “itching, allergies to the sun” value [11] was “rapidly subsides” and the “inflammatory reactions, neurodermatitis” value [12] was “favorably influenced”. For the same molecule, the “itching, neurodermatitis” value [12] was “the itching of the skin in this disorder subsides”, the “efficacy in rheumatic disorders and back conditions” value ([13]; in vivo) was “particularly effective” and the “normal motility of the gastrointestinal tract” value ([13]; rheumatic disorders and back conditions) was “not adversely affected”. For the same molecule, the analgesic actions [14] was “particularly good analgesic actions”, the “antagonism of inflammation-related hyperalgesias” value [14] was “antagonize” and the “dependence of pharmaceutical activity on crystal form” value ([1]; in vivo) was “relatively independent of the crystal form”.
Work on `CN(C(=O)C(c1ccccc1)c1ccccc1)[C@H](CN1CC[C@H](O)C1)c1ccccc1` [Comparison Example, N-methyl-N-[(1S)-1-phenyl-2-((3S)-3-hydroxypyrrolidin-1-yl)ethyl]-2.2-diphenylacetamide hydrochloride] yielded a pKa ([15]; read-out: pKa) of 7.4, a solubility [16] of 11.6 mg/mL and a solubility [17] of 63.1 mg/mL. For the same molecule, the “stability of crystal form” value [18] was “metastable”, the “storage at high humidity” value ([18]; atmospheric humidity approximately 73% to 95%) was “A form designated as type III is obtained” and the “storage at 170° C.” value ([18]; drying oven at 170° C.) was “a partial conversion into type IV was detected”. For the same molecule, the “seven months' storage” value ([18]; seven months, room temperature) was “a start of conversion to the thermostable crystal modification IV”.
In the case of `CN(C(=O)C(c1ccccc1)c1ccccc1)[C@H](CN1CC[C@H](O)C1)c1ccccc1` [type I, N-methyl-N-[(1S)-1-phenyl-2-((3S)-3-hydroxypyrrolidin-1-yl)ethyl]-2,2-diphenylacetamide], the “conversion of solvate type I” value ([18]; slow heating releases solvent) is reported as “readily converted into another crystal type”.
Molecule `CN(C(=O)C(c1ccccc1)c1ccccc1)[C@H](CN1CC[C@H](O)C1)c1ccccc1.Cl` [Example 1, N-methyl-N-[(1S)-1-phenyl-2-((3S)-3-hydroxypyrrolidin-1-yl)ethyl]-2,2-diphenylacetamide hydrochloride] has a pKa [15] of 7.4, a solubility [16] of 7.6 mg/mL and a solubility [17] of 42.6 mg/mL. The “solubility of crystal type IV relative to the solubility of type II” value [19] was 45% to 70.

From patent US6060504A, “N-methyl-N-[(1S)-1-phenyl-2-(3S)-hydroxypyrrolidin-1-yl)ethyl]-2 -2-diphenylacetamide” (priority 1995, dated 2000)
